pKi: −log10 of the molar value. Read-outs that look alike come from different tables or passages of the source.

For test [1], the target named is human GABAA α2β2γ1 receptor (Homo sapiens (Human), UniProt P47869+Q8N1C3). The test is described as follows: Radioligand binding assay, competition for [3H]RO7239181, γ1-containing GABAA subtype α2β2γ1. To be noted: for LogSel: Log[Ki α1β3γ2 (nM)/Ki α2β2γ1 (nM)]; for γ2/γ1 Selectivity Ratio: Ki α1β3γ2 (nM)/Ki α2β2γ1 (nM). The procedure:
The affinity of compounds at GABAA γ1 subunit-containing receptors was measured by competition for [^3H]RO7239181 (67.3 Ci/mmol; Roche) binding to membranes from HEK293F cells (ThermoFisher R^79007) expressing human (transiently transfected) receptors of composition α5β2γ1, α2β2γ1, α1β2γ1.
(§1) Harvested pellets from HEK293F cells expressing the different GABAA receptor subtypes were resuspended in Mannitol Buffer pH 7.2-7.4 (Mannitol 0.29M, Triethylamine 10 mM, Acetic acid 10 mM, EDTA 1 mM plus protease inhibitors (20 tablets Complete, Roche Diagnostics Cat. No. 05 056 489 001 per liter)), washed two times and then resuspended at 1:10 to 1:15 dilution in the same buffer. Cell disruption was performed by stirring the suspension in a Parr vessel #4637 at 435 psi for 15 minutes, and then the suspensions were centrifuged at 1000×g for 15 minutes at 4° C. (Beckman Avanti J-HC: rotor JS-4.2). The supernatant (S1) was transferred in a 21 Schott flask and the pellet (P1) was resuspended with Mannitol Buffer up to 175 ml. The resuspended pellet was transferred into a 250 ml Corning centrifugal beaker and centrifuged at 1500×g for 10 minutes at 4° C. (Beckman Avanti J-HC: rotor JS-4.2). The supernatant (S1) was then transferred in the 21 Schott flask and the pellet was discarded. The supernatants (S1) were centrifuged in 500 ml Beckman polypropylene centrifugal beaker at 15 000×g for 30 minutes at 4° C. (Beckman Avanti J-20 XP: rotor JLA-10.500). The pellet (P2) was resuspended with Mannitol Buffer 1:1 and frozen at −80° C. The supernatant (S2) was centrifuged in 100 ml Beckman polypropylene centrifugal tubes at 48000×g for 50 minutes at 4° C. (Beckman Avanti J-20 XP: rotor JA-18). The supernatant (S3) was discarded and the pellet (P3) was resuspended with 1:1 Mannitol Buffer. The P2 and P3 protein concentration was determined with the BIORAD Standard assay method with bovine serum albumin as standard and measured on the NANO-Drop 1000. The membrane suspension was aliquots (500 μl per tube) and stored at −80° C. until required.
(§2) Membrane homogenates were resuspended and polytronised (Polytron PT1200E Kinematica AG) in Potassium Phosphate 10 mM, KCl 100 mM binding buffer at pH 7.4 to a final assay concentration determined with a previous experiment.
(§3) Assays were incubated to equilibrium for 1 hour at 4° C. and then, membranes were filtered onto unifilter (96-well white microplate with bonded GF/C filters preincubated 20-50 minutes in 0.3% Polyethylenimine) with a Filtermate 196 harvester (Packard BioScience) and washed 4 times with cold Potassium Phosphate 10 mM pH 7.4, KCl 100 mM binding buffer. After anhydrousing, filter-retained radioactivity was detected by liquid scintillation counting. Ki values were calculated using Excel-Fit (Microsoft) and are the means of two determinations.

In the next test the target is h-GABA-A α2β2γ1 (Homo sapiens (Human), UniProt P47869+Q8N1C3). Description: Two-electrode voltage clamp electrophysiology in Xenopus oocytes expressing GABAA receptors, modulation of GABA EC20 current. The class given is cell-based. The note with it: for potentiation of the GABA-induced current: α2β2γ1 GABAA receptor subtype expressing oocytes, reference PAMs; for Efficacy (GABA) %: % modulation of GABA EC20 = 100*(Fold increase−1), compound at 30-fold Ki α2β2γ1; for Fold increase h-GABA-A α2β2γ1 oocyte @ 30-fold Ki: Xenopus oocytes, GABA EC20, test compound at approx. 30-fold its Ki α2β2γ1. The protocol:
Xenopus laevis oocytes at maturation stages V-VI were used for the expression of cloned mRNA encoding GABAA receptor subunits. Oocytes ready for RNA micro-injection were bought from Ecocyte, Castrop-Rauxel, Germany and stored in modified Barth's medium (composition in mM: NaCl 88, KCl 1, NaHCO3 2.4, HEPES 10, MgSO4 0.82, CaNO3 0.33, CaCl2 0.33, pH=7.5) at 20° C. until the experiment.
Oocytes were plated in 96-well plates for microinjection using the Roboinject automated instrument (MultiChannelSystems, Reutlingen, Germany). Approximately 50 nL of an aqueous solution containing the RNA transcripts for the subunits of the desired GABAA receptor subtype was injected into each oocyte. […] Oocytes were kept in modified Barth's medium (composition in mM: NaCl 88, KCl 1, NaHCO3 […], HEPES 10, MgSO4 0.82, CaNO3 0.33, CaCl2 0.33, pH=7.5) at 20° C. until the experiment.
Electrophysiological experiments were performed using the Roboocyte instrument (MultiChannelSystems, Reutlingen, Germany) on days 3 to 5 after the micro-injection of mRNA. During the experiment the oocytes were constantly superfused by a solution containing (in mM) NaCl 90, KCl 1, HEPES 5, MgCl2 1, CaCl2 1 (pH 7.4). Oocytes were impaled by two glass microelectrodes (resistance: 0.5-0.8 MΩ) which were filled with a solution containing KCl 1M+K-acetate 1.5 M and voltage-clamped to −80 mV. The recordings were performed at room temperature using the Roboocyte two-electrode voltage clamp system (Multichannelsystem). After an initial equilibration period of 1.5 min GABA was added for 1.5 min at a concentration evoking approximately 20% of a maximal current response (EC20). After another rest interval of 2.5 min GABA was again added evoking a response of similar amplitude and shape. […] Current traces were recorded at a digitization rate of 10 Hz during and shortly before and after the GABA application.
Each compound and concentration was tested on at least 3 oocytes. Different oocytes were used for different compound concentrations.
For the analysis, the digitized current traces of the first and second GABA response were superimposed and, if necessary, rescaled to equal maximal amplitudes. The ratio between the two responses during the time interval of test compound application was calculated point by point. The extremum of the resulting “ratio trace” was taken as the efficacy (“Fold increase”) of the compound expressed as “% modulation of GABA EC20” (100*(Fold increase−1)).
Background: Two-electrode voltage clamp is typically applied to oocytes expressing channels or transporters.

For test [2], the target named is human GABAA α1β3γ2 receptor (Homo sapiens (Human), UniProt P14867+P18507). Description: Radioligand binding assay, competition for [3H]Flumazenil, γ2-containing GABAA subtype α1β3γ2. The protocol: The affinity of compounds at GABAA γ2 subunit-containing receptors was measured by competition for [^3H]Flumazenil (81.1 Ci/mmol; Roche) binding to HEK293F cells expressing human (transiently transfected) receptors of composition α1β3γ2.
Harvested pellets from HEK293F cells expressing the different GABAA γ2 receptor subtypes were resuspended in Mannitol Buffer pH 7.2-7.4 and processed as described above for the cells expressing the GABAA γ1 subunit-containing receptors.
Assays were incubated to equilibrium for 1 hour at 4° C. and harvested onto GF/C uni-filters (Packard) by filtration using a Packard harvester and washing with ice-cold wash buffer (50 mM Tris; pH 7.5). After anhydrousing, filter-retained radioactivity was detected by liquid scintillation counting. Ki values were calculated using Excel-Fit (Microsoft) and are the means of two determinations.

Test [3] addresses human GABAA α5β2γ1 receptor (Homo sapiens (Human), UniProt P31644+Q8N1C3). Description: Radioligand binding assay, competition for [3H]RO7239181, γ1-containing GABAA subtype α5β2γ1. The procedure:
The affinity of compounds at GABAA γ1 subunit-containing receptors was measured by competition for [^3H]RO7239181 (67.3 Ci/mmol; Roche) binding to membranes from HEK293F cells (ThermoFisher R^79007) expressing human (transiently transfected) receptors of composition α5β2γ1, α2β2γ1, α1β2γ1. For better protein expression of the α2 subunit-containing receptors, the 28 amino acid long signal peptide (Met1 to Ala28)of the human GABAA α2 subunit was substituted by the 31 amino acid long signal peptide (Met1 to Ser31) of human GABAA α5 subunit.
as §1, §2
as §3, with “Radioligand binding assays were carried out in a volume of 200 μL (96-well plates) which contained 100 μL of cell membranes, [3H]RO7239181 at a concentration of 1.5 nM (α5β2γ1) or 20-30 nM (α1β2γ1, α2β2γ1) and the test compound in the range of [0.3-1000]×10^−9 M. Nonspecific binding was defined by 10×10^−6 (α5β2γ1) and 30×10^−6 M RO7239181 and typically represented less than 5% (α5β2γ1) and less than 20% (α1β2γ1, α2β2γ1) of the total binding. Assays” for “Assays”

The mark [4] stands for this setting: read-out: Ki h-GABAA α2β2γ1, Table 2, membranes of HEK293F cells, [3H]RO7239181.

In test [1] (Table 3), `Cc1nnc2n1-c1ccc(Cl)cc1C(c1ccccc1)=NC2` [Alprazolam, reference compound] returned a LogSel of −2.3.
In test [1] (Table 3), `Cc1ncc2n1-c1ccc(Cl)cc1C(c1ccccc1F)=NC2` [Midazolam, reference compound] gave a LogSel of −2.2. Also, the “potentiation of the GABA-induced current” value on h-GABA-A α2β2γ1 is on record as roughly 60%.
As a reminder, the pKi is −log10 of the Ki, conventionally taken in molar units. Turning to `CCc1cn2c(nc1=O)[C@H](C)N=C(c1c(F)cccc1F)c1c-2ccc(Cl)c1Cl` [Example 14, (5S)-8,9-dichloro-7-(2,6-difluorophenyl)-2-ethyl-5-methyl-5H-pyrimido[1,2-a][1,4]benzodiazepine-3-one], the pKi in test [1] was 7.81; in test [1] (setting [4]), 7.81; in test [2] it was 6.04; in test [3], 8.64. Further, the “γ2/γ1 Selectivity Ratio” value in test [1] came to 58.4. Besides, the LogSel in test [1] amounted to 1.77. Also, the “Efficacy (GABA) %” value at h-GABA-A α2β2γ1 was 66%. Moreover, the “Fold increase h-GABA-A α2β2γ1 oocyte @ 30-fold Ki” value at h-GABA-A α2β2γ1 is 1.66.
Consider `CN1C(=O)CN=C(c2ccccc2F)c2cc([N+](=O)[O-])ccc21` [Flunitrazepam, reference compound], for which, at h-GABA-A α2β2γ1, the “potentiation of the GABA-induced current” value is roughly 60%.
As to `Cc1ccc2c(c1Cl)C(c1c(F)cccc1F)=N[C@@H](C)c1nc(=O)c(C)cn1-2` [Example 8, (5S)-8-chloro-7-(2,6-difluorophenyl)-2,5,9-trimethyl-5H-pyrimido[1,2-a][1,4]benzodiazepin-3-one], the pKi in test [1] was 7.42; in test [1] (setting [4]), 7.42; in test [2], 5.91; in test [3], 8.70. In addition, in test [1], the “γ2/γ1 Selectivity Ratio” value was determined as 32.7. In test [1], the LogSel stood at 1.51. Besides, the “Efficacy (GABA) %” value at h-GABA-A α2β2γ1 was determined as 115%. Moreover, the “Fold increase h-GABA-A α2β2γ1 oocyte @ 30-fold Ki” value on h-GABA-A α2β2γ1 is recorded as 2.15.
For the molecule `C[C@@H]1N=C(c2c(F)cccc2F)c2c(ccc(Br)c2Cl)-n2cc(Br)c(=O)nc21` [Example 16, (5S)-2,9-dibromo-8-chloro-7-(2,6-difluorophenyl)-5-methyl-5H-pyrimido[1,2-a][1,4]benzodiazepin-3-one], in test [1], the pKi is 8.08, the “γ2/γ1 Selectivity Ratio” value worked out at 188.0 and the LogSel amounted to 2.27. The same molecule had a pKi in test [2] of 5.80. This molecule gave a pKi in test [3] of 8.80. Also, at h-GABA-A α2β2γ1, the “Efficacy (GABA) %” value stood at 71% and the “Fold increase h-GABA-A α2β2γ1 oocyte @ 30-fold Ki” value worked out at 1.71.
Consider `O=c1ccn2c(n1)CN=C(c1c(F)cccc1F)c1c-2ccc(Cl)c1Br` [Example 17, 8-bromo-9-chloro-7-(2,6-difluorophenyl)-5H-pyrimido[1,2-a][1,4]benzodiazepin-3-one], for which, in test [1], the pKi is 7.86, the “γ2/γ1 Selectivity Ratio” value was 36.9 and the LogSel was determined as 1.57. Also, in test [1] (setting [4]), the pKi was 7.86. The pKi in test [2] was 6.29. Besides, the pKi in test [3] is 9.00. Besides, at h-GABA-A α2β2γ1, the “Efficacy (GABA) %” value is listed as 79% and the “Fold increase h-GABA-A α2β2γ1 oocyte @ 30-fold Ki” value is given as 1.79.
Turning to `O=c1ccn2c(n1)CN=C(c1ccccc1F)c1cc(Cl)ccc1-2` [RE-A, 9-chloro-7-(2-fluorophenyl)-5H-pyrimido[1,2-a][1,4]benzodiazepin-3-one, reference compound], the pKi is 6.91 in test [1] and 7.56 in test [2]. In addition, the “γ2/γ1 Selectivity Ratio” value in test [1] (Table 3) was determined as 0.23. The same molecule returned a LogSel in test [1] (Table 3) of −0.64.
With `Cc1cn2c(nc1=O)[C@H](C)N=C(c1c(F)cccc1F)c1c-2ccc(Cl)c1Cl` [Example 7, (5S)-8,9-dichloro-7-(2,6-difluorophenyl)-2,5-dimethyl-5H-pyrimido[1,2-a][1,4]benzodiazepin-3-one], in test [1], the pKi is 7.95, the “γ2/γ1 Selectivity Ratio” value was determined as 61.2 and the LogSel came to 1.79. Besides, the pKi in test [1] (setting [4]) is 7.95. The same molecule had a pKi in test [2] of 6.16. The same molecule showed a pKi in test [3] of 8.85. Moreover, on h-GABA-A α2β2γ1, the “Efficacy (GABA) %” value is recorded as 53% and the “Fold increase h-GABA-A α2β2γ1 oocyte @ 30-fold Ki” value is recorded as 1.53.
For the molecule `Cc1nnc2n1-c1ccc(Cl)cc1C(c1ccccc1Cl)=NC2` [Triazolam, reference compound], in test [1] (Table 3), the LogSel was −1.5. Moreover, the “potentiation of the GABA-induced current” value on h-GABA-A α2β2γ1 was roughly 60%.

(Values after patent US20240287082A1, “NEW BENZODIAZEPINE DERIVATIVES AS GABA A GAMMA1 PAM” (Hoffmann-La Roche Inc., priority 2021, published 2024).)
